Measured values from patent US10633397B2, “Substituted polycyclic pyridone derivatives and prodrugs thereof” (priority 2015, dated 2020).
pIC50: −log10 of the molar value. Converted amounts (≈) assume the structure as drawn.

Tests used:
[1] = test system: red blood cells prepared from a defibrinated blood of sheep; assay: Light hemolysis test; format: cell-based; settings: 10 J/cm^2 UV-irradiation, 0.0008 to 0.1 w/v %
Procedure: Test Example 12: Light Hemolysis Test
The compound of the present invention was dissolved at target concentrations and was mixed with a 2.5 v/v % suspension of red blood cells prepared from a defibrinated blood of sheep on a microplate at concentrations of 0.0008 to 0.1 w/v %. The mixtures were exposed to 10 J/cm^2 of UV-irradiation within a range of wavelength 290 to 400 nm, UVA and UVB using ultra violet fluorescent lamps, GL20SE and FL20S-BLB lamps manufactured by Sankyo Denki Co., Ltd. and Panasonic Corporation, respectively. After the completion of the irradiation, the mixtures were centrifuged, and a supernatant of the mixture was collected and was located on a microplate. The phototoxicity was assessed by measuring an absorbance at wavelength of 540 nm and 630 nm in the supernatant. The absorbance data at wavelength of 540 nm and 630 nm were used as indicators of biomembrane damage (photohemolysis %) and hyperoxidation of lipid membrane (methemoglobin formation), respectively. The criteria of phototoxicity was as follows; It was judged to be non-phototoxic (−) when the photohemolysis %<10 and the maximal change in the absorbance at 630 nm (ΔOD)<0.05 were observed. It was judged to be […] when the photohemolysis was more than 10% and the maximal change in the absorbance at 630 nm (ΔOD) was more than 0.05.

[2] = physchem; format: physicochemical; settings: kinetic from dmso stock; 1% DMSO addition conditions; JP-1 or JP-2 solution not stated in result
Procedure: Test Example 9: Solubility Test
A 10 mmol/L solution of the compound was prepared with DMSO, and 2 μL of the solution of the compound of the present invention was added, respectively, to 198 μL of JP-1 solution (water were added to 2.0 g of sodium chloride and 7.0 mL of hydrochloric acid to reach 1000 mL) and JP-2 solution (1 volume of water were added to 1 volume of the solution which 3.40 g of potassium dihydrogen phosphate and 3.55 g of anhydrous disodium hydrogen phosphate to reach 1000 mL). The mixture was shaked for 1 hour at a room temperature, and the mixture was filtered. The filtrate was ten-fold diluted with methanol/water=1/1(v/v), and the compound concentration in the filtrate was measured with LC/MS or SPE/MS by the absolute calibration method.

[3] = target: T1, CYP2C9 (Homo sapiens, UniProt P11712); assay: biochemical; format: in vitro ADME
T1 construct: Using commercially available pooled human hepatic microsome; from tissue
Excerpt: (§1) Test Example 3: CYP Inhibition Test
(§2) Using commercially available pooled human hepatic microsome, and employing, as markers, 7-ethoxyresorufin O-deethylation (CYP1A2), tolbutamide methyl-hydroxylation (CYP2C9), mephenytoin 4′-hydroxylation (CYP2C19), dextromethorphan O-demethylation (CYP2D6), and terfenedine hydroxylation (CYP3A4) as typical substrate metabolism reactions of human main five CYP enzyme forms (CYP1A2, 2C9, 2C19, 2D6, 3A4), an inhibitory degree of each metabolite production amount by a compound of the present invention was assessed.
(§3) The reaction conditions were as follows: substrate, 0.5 μmol/L ethoxyresorufin (CYP1A2), 100 μmol/L tolbutamide (CYP2C9), 50 μmol/L S-mephenytoinmephenitoin (CYP2C19), 5 μmol/L dextromethorphan (CYP2D6), 1 μmol/L terfenedine (CYP3A4); reaction time, 15 minutes; reaction temperature, 37° C.; enzyme, pooled human hepatic microsome 0.2 mg protein/mL; concentration of a compound of the present invention, 1, 5, 10, 20 μmol/L (four points).
(§4) Each five kinds of substrates, human hepatic microsome, or a compound of the present invention in 50 mmol/L Hepes buffer as a reaction solution was added to a 96-well plate at the composition as described above, NADPH, as a cofactor was added to initiate metabolism reactions as markers and, after the incubation at 37° C. for 15 minutes, a methanol/acetonitrile=1/1 (v/v) solution was added to stop the reaction. After the centrifugation at 3000 rpm for 15 minutes, resorufin (CYP1A2 metabolite) in the supernatant was quantified by a fluorescent multilabel counter and toltributamide hydroxide (CYP2C9P metabolite), mephenytoin 4′ hydroxide (CYP2C19 metabolite), […] (CYP2D6 metabolite), and terfenadine alcohol (CYP3A4 metabolite) were quantified by LC/MS/MS.

[4] = target: T2, CYP2D6 (Homo sapiens, UniProt P10635); assay: biochemical; format: in vitro ADME
T2 construct: Using commercially available pooled human hepatic microsome; from tissue
Excerpt: as §1, §2, §3, §4

[5] = target: T3, CYP1A2 (Homo sapiens, UniProt P05177); assay: biochemical; format: in vitro ADME
T3 construct: Using commercially available pooled human hepatic microsome; from tissue
T3 sequence (P05177 1-516): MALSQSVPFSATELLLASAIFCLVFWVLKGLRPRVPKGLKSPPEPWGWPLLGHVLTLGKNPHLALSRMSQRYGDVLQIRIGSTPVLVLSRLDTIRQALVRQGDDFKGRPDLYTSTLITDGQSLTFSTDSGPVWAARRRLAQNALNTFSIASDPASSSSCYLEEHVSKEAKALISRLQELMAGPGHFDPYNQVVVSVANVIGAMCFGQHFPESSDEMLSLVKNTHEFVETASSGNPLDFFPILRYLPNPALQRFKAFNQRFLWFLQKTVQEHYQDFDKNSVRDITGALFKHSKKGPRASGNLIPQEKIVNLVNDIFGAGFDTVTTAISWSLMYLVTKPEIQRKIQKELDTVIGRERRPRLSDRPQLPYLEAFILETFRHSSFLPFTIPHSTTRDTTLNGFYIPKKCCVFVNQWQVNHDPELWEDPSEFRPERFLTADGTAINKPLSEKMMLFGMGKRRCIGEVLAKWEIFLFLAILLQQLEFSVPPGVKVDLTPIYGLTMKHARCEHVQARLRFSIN
Excerpt: as §1, §2, §3, §4

[6] = target: T4, CYP3A4 (Homo sapiens, UniProt P08684); assay: biochemical; format: in vitro ADME
T4 construct: Using commercially available pooled human hepatic microsome; from tissue
Excerpt: as §1, §2, §3, §4

[7] = target: T5, CYP2C19 (Homo sapiens, UniProt P33261); assay: biochemical; format: in vitro ADME
T5 construct: Using commercially available pooled human hepatic microsome; from tissue
Excerpt: as §1, §2, §3, §4

T5 sequence (P33261 whole entry): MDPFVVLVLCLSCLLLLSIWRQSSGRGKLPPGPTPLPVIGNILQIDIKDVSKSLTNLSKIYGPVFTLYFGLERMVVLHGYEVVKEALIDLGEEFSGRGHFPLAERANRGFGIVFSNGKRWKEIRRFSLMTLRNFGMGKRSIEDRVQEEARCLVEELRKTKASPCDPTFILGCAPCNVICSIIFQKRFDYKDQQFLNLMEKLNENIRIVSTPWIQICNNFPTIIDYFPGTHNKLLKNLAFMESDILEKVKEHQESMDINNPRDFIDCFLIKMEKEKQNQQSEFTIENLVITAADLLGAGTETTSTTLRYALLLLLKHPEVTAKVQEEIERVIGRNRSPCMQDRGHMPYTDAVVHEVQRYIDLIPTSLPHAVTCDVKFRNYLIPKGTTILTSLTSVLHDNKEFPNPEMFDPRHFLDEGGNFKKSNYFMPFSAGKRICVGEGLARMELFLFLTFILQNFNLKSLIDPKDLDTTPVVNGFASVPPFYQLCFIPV
T2 sequence (P10635 whole entry): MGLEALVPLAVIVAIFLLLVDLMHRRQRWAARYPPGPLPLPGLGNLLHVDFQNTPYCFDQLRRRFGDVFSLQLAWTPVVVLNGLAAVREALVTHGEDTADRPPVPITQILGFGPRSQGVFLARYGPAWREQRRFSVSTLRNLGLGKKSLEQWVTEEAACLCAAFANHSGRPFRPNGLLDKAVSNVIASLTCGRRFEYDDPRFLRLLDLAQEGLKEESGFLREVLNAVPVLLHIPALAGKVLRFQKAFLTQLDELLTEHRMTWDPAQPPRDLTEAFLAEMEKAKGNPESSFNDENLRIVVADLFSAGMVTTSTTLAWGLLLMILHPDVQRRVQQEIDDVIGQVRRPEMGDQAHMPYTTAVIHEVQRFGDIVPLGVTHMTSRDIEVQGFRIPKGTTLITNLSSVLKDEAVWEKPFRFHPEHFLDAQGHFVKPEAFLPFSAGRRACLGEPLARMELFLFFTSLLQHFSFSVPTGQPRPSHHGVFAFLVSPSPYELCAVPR
T4 sequence (P08684 whole entry): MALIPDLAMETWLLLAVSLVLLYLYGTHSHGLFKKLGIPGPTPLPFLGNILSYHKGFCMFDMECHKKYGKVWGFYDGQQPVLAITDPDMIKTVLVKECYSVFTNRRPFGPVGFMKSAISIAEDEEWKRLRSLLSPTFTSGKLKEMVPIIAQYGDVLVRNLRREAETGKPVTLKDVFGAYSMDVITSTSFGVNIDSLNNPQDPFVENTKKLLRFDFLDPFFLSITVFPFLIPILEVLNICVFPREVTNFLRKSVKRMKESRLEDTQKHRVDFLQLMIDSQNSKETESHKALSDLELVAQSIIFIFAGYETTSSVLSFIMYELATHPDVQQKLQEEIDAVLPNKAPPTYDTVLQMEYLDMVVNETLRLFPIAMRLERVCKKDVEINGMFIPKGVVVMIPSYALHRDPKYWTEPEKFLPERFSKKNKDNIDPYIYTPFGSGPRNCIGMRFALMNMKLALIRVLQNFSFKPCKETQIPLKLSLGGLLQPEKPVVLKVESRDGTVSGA
T1 sequence (P11712 whole entry): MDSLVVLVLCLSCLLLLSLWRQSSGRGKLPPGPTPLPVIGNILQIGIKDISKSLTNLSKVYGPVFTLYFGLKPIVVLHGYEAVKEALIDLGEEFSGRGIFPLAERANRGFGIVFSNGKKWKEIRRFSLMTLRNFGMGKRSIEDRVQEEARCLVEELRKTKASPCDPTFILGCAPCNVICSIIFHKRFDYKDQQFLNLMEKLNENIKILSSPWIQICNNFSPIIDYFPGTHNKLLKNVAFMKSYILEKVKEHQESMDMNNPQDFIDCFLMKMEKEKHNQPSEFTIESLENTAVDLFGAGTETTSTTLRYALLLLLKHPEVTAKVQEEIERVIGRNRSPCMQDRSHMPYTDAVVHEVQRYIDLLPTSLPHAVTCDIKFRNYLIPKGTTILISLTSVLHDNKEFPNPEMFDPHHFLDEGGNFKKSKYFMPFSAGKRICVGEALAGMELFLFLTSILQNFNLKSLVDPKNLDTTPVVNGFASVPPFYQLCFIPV

For `O=C1c2c(O)c(=O)ccn2N([C@@H]2c3ccccc3SCc3c2ccc(F)c3F)[C@@H]2COCCN12` [III-2], the phototoxicity [1] was “(−) (It was judged to be non-phototoxic (−) when the photohemolysis %<10 and the maximal change in the absorbance at 630 nm (ΔOD)<0.05 were observed)”, the solubility [2] was 42.2 µM (≈ 20.4 µg/mL) and the pIC50 [3] was less than 4.70. It also gave a pIC50 [4] of less than 4.70, a pIC50 [5] of less than 4.70 and a pIC50 [6] of less than 4.70. It also gave a pIC50 [7] of less than 4.70.
